One test has as its system TMD8 cells. Put plainly: 4-day proliferation assay, TMD8. It counts as cell-based. Conditions: Homo sapiens, 96 h, 4 days incubation, CellTiterGLO, read-out: Anti-proliferation: TMD-8 IC50. In short, it runs like this: (§1)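 Each line was plated at 10,000 cells per well for linear growth, with no beta-mercaptoethanol during the assay. OCI-Ly3 cells were below passage 10.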

A further test deals with OCI-Ly3 cells. Nature of the test: 4-day proliferation assay, OCI-Ly3. Type of test: cell-based, human. Conditions: Homo sapiens, 96 h, 4 days incubation, CellTiterGLO, read-out: Anti-proliferation: OCI-LY-3 IC50. In short, it runs like this: as §1
Test [1] concerns IL10 secretion by OCI-LY3 ABC-DLBCL cells. Put plainly: Human IL10 Mesoscale assay (OCI-LY3). It counts as cell-based. The conditions noted are these: Homo sapiens, 24 h. In short, it runs like this: (§2)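 Compounds tested from 15 μM to 58.6 nM (twofold, 9 concentrations) on 100,000 cells per well over 24 h at 37° C, without beta-mercaptoethanol. Secreted cytokine in supernatant detected by MSD electrochemiluminescence; scaling used DMSO as maximum and RN486 as full inhibition.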

Test [2] concerns IL6 secretion by OCI-LY3 ABC-DLBCL cells. Put plainly: Human IL6 Mesoscale assay (OCI-LY3). The conditions noted are these: Homo sapiens, 24 h. It counts as cell-based. In outline: as §2
Test [3] concerns the target full-length MALT1 protein (Strep-MALT1(1-824)-His) (Homo sapiens (Human), UniProt Q9UDY8). Nature of the test: MALT1 Biochemical Protease Assay (Ac-LRSR-AMC substrate). The conditions noted are these: 10 nM FL MALT1, 200 μM Ac-LRSR-AMC, 4 h at RT; read-out: MALT1_Biochemical activity (Ac-LRSR-amc) IC50. In outline: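 Fluorescence from AMC release off the quenched LRSR substrate was read after a 4 h reaction at RT. Values were normalised to no-enzyme and uninhibited controls and fitted for IC50 and Hill coefficient.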

Test [4] deals with IL10 secretion by TMD8 ABC-DLBCL cells. Nature of the test: Human IL10 Mesoscale assay (TMD-8). It counts as cell-based. The conditions noted are these: Homo sapiens, TMD8; TMD-8 cells, 24 h. In short, it runs like this: as §2
Test [5] deals with IL6 secretion by TMD8 ABC-DLBCL cells. Nature of the test: Human IL6 Mesoscale assay (TMD-8). Conditions: Homo sapiens, TMD8; TMD-8 cells, 24 h. Type of test: cell-based. In outline: as §2

full-length MALT1 protein (Strep-MALT1(1-824)-His), sequence (Q9UDY8 whole entry): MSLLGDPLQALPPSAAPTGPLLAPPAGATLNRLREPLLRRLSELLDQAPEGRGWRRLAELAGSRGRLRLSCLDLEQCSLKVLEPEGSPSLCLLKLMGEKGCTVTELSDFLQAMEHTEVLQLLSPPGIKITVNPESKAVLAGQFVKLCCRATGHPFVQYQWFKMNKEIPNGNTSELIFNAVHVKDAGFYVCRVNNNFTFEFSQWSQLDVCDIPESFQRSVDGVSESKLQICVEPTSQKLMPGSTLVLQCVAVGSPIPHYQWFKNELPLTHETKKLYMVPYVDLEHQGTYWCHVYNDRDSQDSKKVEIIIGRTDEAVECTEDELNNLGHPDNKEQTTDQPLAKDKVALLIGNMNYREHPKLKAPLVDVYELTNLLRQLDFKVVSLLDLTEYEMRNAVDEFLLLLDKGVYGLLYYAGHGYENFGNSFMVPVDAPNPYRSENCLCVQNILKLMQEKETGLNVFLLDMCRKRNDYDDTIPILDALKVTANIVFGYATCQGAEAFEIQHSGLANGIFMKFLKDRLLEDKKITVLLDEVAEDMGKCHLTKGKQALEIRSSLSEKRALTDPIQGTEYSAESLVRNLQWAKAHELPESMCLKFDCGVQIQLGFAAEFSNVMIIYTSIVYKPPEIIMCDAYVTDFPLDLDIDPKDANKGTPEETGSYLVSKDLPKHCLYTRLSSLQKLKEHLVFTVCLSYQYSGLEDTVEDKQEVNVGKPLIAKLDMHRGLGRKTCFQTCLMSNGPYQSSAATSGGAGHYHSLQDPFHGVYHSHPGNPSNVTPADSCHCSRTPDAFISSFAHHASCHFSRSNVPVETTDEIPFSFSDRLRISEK

As for `Cc1nc(-n2nccn2)c(Cl)cc1NC(=O)c1cnn(-c2cccn3nccc23)c1C(F)(F)F`, the IC50 came to 3.02 µM in the test on TMD8 cells; 0.641 µM with OCI-Ly3 cells; 0.091 µM in test [1]; 0.115 µM in test [2]; 0.026 µM in test [3].

Regarding `O=C(O)c1cnn(-c2ncc(NC(=O)c3cnn(-c4cccc5ncccc45)c3C(F)(F)F)cc2Cl)n1` [Cpd 109, 2-(3-chloro-5-(1-(quinolin-5-yl)-5-(trifluoromethyl)-1H-pyrazole-4-carboxamido)pyridin-2-yl)-2H-1,2,3-triazole-4-carboxylic acid], the IC50 is over 20 µM in the test with TMD8 cells; over 20 µM in the test on OCI-Ly3 cells; 0.031 µM in test [1]; 0.028 µM in test [2]; 0.01 µM in test [3].

Take `Nc1ncc(-n2ncc(C(=O)Nc3cnc(-n4nccn4)c(Cl)c3)c2C(F)(F)F)c2cccc(F)c12` [Cpd 110, 1-(1-amino-8-fluoroisoquinolin-4-yl)-N-(5-chloro-6-(2H-1,2,3-triazol-2-yl)pyridin-3-yl)-5-(trifluoromethyl)-1H-pyrazole-4-carboxamide]: the IC50 is 1.45 µM with TMD8 cells; 0.22 µM in the test on OCI-Ly3 cells; 0.024 µM in test [1]; 0.025 µM in test [2]; 0.019 µM in test [3].

Consider `N#Cc1cc(NC(=O)c2cnn(-c3cnc(N)c4c(F)cccc34)c2C(F)(F)F)cnc1-n1nccn1` [Cpd 111, 1-(1-amino-8-fluoroisoquinolin-4-yl)-N-(5-cyano-6-(2H-1,2,3-triazol-2-yl)pyridin-3-yl)-5-(trifluoromethyl)-1H-pyrazole-4-carboxamide], for which the IC50 in the test with TMD8 cells came to 3.31 µM; in the test with OCI-Ly3 cells it was 0.284 µM; in test [1] it was 0.089 µM; in test [2], 0.107 µM; in test [3], 0.01 µM.

For `Cc1nc(-n2nccn2)c(Cl)cc1NC(=O)c1cnn(-c2cccc3c(=O)[nH]ccc23)c1C(F)(F)F` [Cpd 112, N-(5-chloro-2-methyl-6-(2H-1,2,3-triazol-2-yl)pyridin-3-yl)-1-(1-oxo-1,2-dihydroisoquinolin-5-yl)-5-(trifluoromethyl)-1H-pyrazole-4-carboxamide], the IC50 in the test with TMD8 cells was found to be 6.31 µM; with OCI-Ly3 cells, 0.966 µM; in test [1], 0.098 µM; in test [2], 0.115 µM; in test [3], 0.017 µM.

As to `N#Cc1cc(NC(=O)c2cnn(-c3cccc4c(=O)[nH]ccc34)c2C(F)(F)F)cnc1-n1nccn1` [Cpd 113, N-(5-cyano-6-(2H-1,2,3-triazol-2-yl)pyridin-3-yl)-1-(1-oxo-1,2-dihydroisoquinolin-5-yl)-5-(trifluoromethyl)-1H-pyrazole-4-carboxamide], the IC50 in the test on TMD8 cells was 13.8 µM; in the test with OCI-Ly3 cells, 0.912 µM; in test [1], 0.079 µM; in test [2] it was 0.17 µM; in test [3] it was 0.011 µM.

`N#Cc1cc(NC(=O)c2cnn(-c3cccc4ncsc34)c2C(F)(F)F)cnc1-n1nccn1` [Cpd 114, 1-(benzo[d]thiazol-7-yl)-N-(5-cyano-6-(2H-1,2,3-triazol-2-yl)pyridin-3-yl)-5-(trifluoromethyl)-1H-pyrazole-4-carboxamide]: the IC50 in the test with TMD8 cells was 2.69 µM; in the test with OCI-Ly3 cells, 0.193 µM; in test [1] it was 0.029 µM; in test [2], 0.034 µM; in test [3] it was 0.011 µM.

For `O=C(Nc1cnc(-n2nccn2)c(Cl)c1)c1cnn(-c2cncc3c(F)cccc23)c1C(F)(F)F` [Cpd 117, N-(5-chloro-6-(2H-1,2,3-triazol-2-yl)pyridin-3-yl)-1-(8-fluoroisoquinolin-4-yl)-5-(trifluoromethyl)-1H-pyrazole-4-carboxamide], the IC50 in the test on TMD8 cells came to 1.58 µM; with OCI-Ly3 cells it was 0.211 µM; in test [1], 0.012 µM; in test [2], 0.012 µM; in test [3] it was 0.013 µM.

As to `N#Cc1cc(NC(=O)c2cnn(-c3cncc4c(F)cccc34)c2C(F)(F)F)cnc1-n1nccn1` [Cpd 118, N-(5-cyano-6-(2H-1,2,3-triazol-2-yl)pyridin-3-yl)-1-(8-fluoroisoquinolin-4-yl)-5-(trifluoromethyl)-1H-pyrazole-4-carboxamide], the IC50 with TMD8 cells was found to be 0.832 µM; in the test with OCI-Ly3 cells it was 0.158 µM; in test [1] it was 0.012 µM; in test [2] it was 0.017 µM; in test [3], 0.015 µM.

Consider `N#Cc1cc(NC(=O)c2cnn(-c3cccc4nnsc34)c2C(F)(F)F)cnc1-n1nccn1` [Cpd 119, 1-(benzo[d][1,2,3]thiadiazol-7-yl)-N-(5-cyano-6-(2H-1,2,3-triazol-2-yl)pyridin-3-yl)-5-(trifluoromethyl)-1H-pyrazole-4-carboxamide], for which the IC50 was found to be 0.355 µM with TMD8 cells; 0.193 µM in the test with OCI-Ly3 cells; 0.04 µM in test [1]; 0.072 µM in test [2]; 0.013 µM in test [3].

For the molecule `Cc1nc(-n2nccn2)c(Cl)cc1NC(=O)c1cnn(-c2cccc3nnsc23)c1C(F)(F)F` [Cpd 121, 1-(benzo[d][1,2,3]thiadiazol-7-yl)-N-(5-chloro-2-methyl-6-(2H-1,2,3-triazol-2-yl)pyridin-3-yl)-5-(trifluoromethyl)-1H-pyrazole-4-carboxamide], the IC50 in the test with TMD8 cells came to 1.91 µM; with OCI-Ly3 cells it was 0.692 µM; in test [1], 0.05 µM; in test [2] it was 0.058 µM; in test [3], 0.022 µM.

In the case of `N#Cc1cc(NC(=O)c2cnn(-c3cccc4c(F)cccc34)c2C(F)(F)F)cnc1-n1nccn1` [Cpd 122, N-(5-cyano-6-(2H-1,2,3-triazol-2-yl)pyridin-3-yl)-1-(5-fluoronaphthalen-1-yl)-5-(trifluoromethyl)-1H-pyrazole-4-carboxamide], the IC50 came to 0.162 µM with TMD8 cells; 0.132 µM in the test with OCI-Ly3 cells; 0.056 µM in test [1]; 0.052 µM in test [2]; 0.013 µM in test [3].

`Cc1cnn(-c2ncc(NC(=O)c3cnn(-c4cccc5ncccc45)c3C(F)(F)F)cc2Cl)n1` [Cpd 125, N-(5-chloro-6-(4-methyl-2H-1,2,3-triazol-2-yl)pyridin-3-yl)-1-(quinolin-5-yl)-5-(trifluoromethyl)-1H-pyrazole-4-carboxamide]: the IC50 in the test on TMD8 cells is 1.02 µM; in the test on OCI-Ly3 cells it was 0.285 µM; in test [1], 0.024 µM; in test [2], 0.046 µM; in test [3], 0.013 µM.

With `O=C(Nc1cnc(-c2ncco2)c(Cl)c1)c1cnn(-c2cccc3c(=O)[nH]ccc23)c1C(F)(F)F` [Cpd 127, N-(5-chloro-6-(oxazol-2-yl)pyridin-3-yl)-1-(1-oxo-1,2-dihydroisoquinolin-5-yl)-5-(trifluoromethyl)-1H-pyrazole-4-carboxamide], the IC50 was determined as 11.2 µM with TMD8 cells; 0.432 µM with OCI-Ly3 cells; 0.026 µM in test [1]; 0.029 µM in test [2]; 0.015 µM in test [3].

As to `N#Cc1cc(NC(=O)c2cnn(-c3ccc(N)c4ccccc34)c2C(F)(F)F)cnc1-n1nccn1` [Cpd 132, 1-(4-aminonaphthalen-1-yl)-N-(5-cyano-6-(2H-1,2,3-triazol-2-yl)pyridin-3-yl)-5-(trifluoromethyl)-1H-pyrazole-4-carboxamide], the IC50 came to 7.76 µM in the test on TMD8 cells; 0.571 µM with OCI-Ly3 cells; 0.095 µM in test [1]; 0.141 µM in test [2]; 0.019 µM in test [3].

As for `O=C(Nc1cnc(-n2cc(CO)cn2)c(Cl)c1)c1cnn(-c2cccc3ncccc23)c1C(F)(F)F` [Cpd 135, N-(5-chloro-6-(4-(hydroxymethyl)-1H-pyrazol-1-yl)pyridin-3-yl)-1-(quinolin-5-yl)-5-(trifluoromethyl)-1H-pyrazole-4-carboxamide], the IC50 with TMD8 cells came to 3.09 µM; in the test with OCI-Ly3 cells it was 1.31 µM; in test [1], 0.083 µM; in test [2] it was 0.098 µM; in test [3] it was 0.021 µM.

Consider `Cn1c(=O)cc(-n2ncc(C(=O)Nc3cnc(-n4nccn4)c(Cl)c3)c2C(F)(F)F)c2ccccc21` [Cpd 419, N-(5-chloro-6-(2H-1,2,3-triazol-2-yl)pyridin-3-yl)-1-(1-methyl-2-oxo-1,2-dihydroquinolin-4-yl)-5-(trifluoromethyl)-1H-pyrazole-4-carboxamide], for which the IC50 turned out to be 5.75 µM with TMD8 cells, 1.12 µM in the test with OCI-Ly3 cells, 1.66 µM in test [2] and 0.015 µM in test [3].

As to `O=C(Nc1cnc(-c2nccs2)c(Cl)c1)c1cnn(-c2cncc3ccccc23)c1C(F)(F)F` [compound 63, N-(5-chloro-6-(thiazol-2-yl)pyridin-3-yl)-1-(isoquinolin-4-yl)-5-(trifluoromethyl)-1H-pyrazole-4-carboxamide], the IC50 in the test with TMD8 cells was over 7.94 µM; in the test with OCI-Ly3 cells it was about 1.15 µM; in test [3], 0.295 µM; in test [4], 1.45 µM; in test [5] it was 2.04 µM.

Values taken from patent US10954214B2 (Janssen Pharmaceutica NV, priority 2016, dated 2021).
